Experimental data as given in patent publication US9290440B2, “Bicyclic compound” (TOA EIYO LTD., priority 2012, dated 2016).
Where two headings read alike, the source gives them in different places.

Molecular target: T1, human sGC α subunit and β subunit (Homo sapiens, UniProt Q02153)
T1 construct: expressed in transfected cells
T1 sequence (Q02153 1-619): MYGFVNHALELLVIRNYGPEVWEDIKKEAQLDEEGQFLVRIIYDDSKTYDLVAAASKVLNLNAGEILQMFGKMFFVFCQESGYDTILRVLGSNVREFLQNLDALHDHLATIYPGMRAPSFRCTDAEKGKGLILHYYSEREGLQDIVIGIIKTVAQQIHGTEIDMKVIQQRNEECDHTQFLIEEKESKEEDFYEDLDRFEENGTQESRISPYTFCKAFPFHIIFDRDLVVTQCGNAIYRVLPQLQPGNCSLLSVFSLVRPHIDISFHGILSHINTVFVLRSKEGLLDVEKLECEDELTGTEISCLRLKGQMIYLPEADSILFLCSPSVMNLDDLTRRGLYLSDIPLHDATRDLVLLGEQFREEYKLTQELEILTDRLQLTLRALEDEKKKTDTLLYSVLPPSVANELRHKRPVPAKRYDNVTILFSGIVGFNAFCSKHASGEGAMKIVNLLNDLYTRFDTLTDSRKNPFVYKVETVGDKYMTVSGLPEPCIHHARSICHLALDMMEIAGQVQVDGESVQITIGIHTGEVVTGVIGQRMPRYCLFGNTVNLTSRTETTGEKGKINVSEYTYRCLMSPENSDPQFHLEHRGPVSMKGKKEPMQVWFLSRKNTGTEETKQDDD
T1 sequence (Q02108 1-690 partner): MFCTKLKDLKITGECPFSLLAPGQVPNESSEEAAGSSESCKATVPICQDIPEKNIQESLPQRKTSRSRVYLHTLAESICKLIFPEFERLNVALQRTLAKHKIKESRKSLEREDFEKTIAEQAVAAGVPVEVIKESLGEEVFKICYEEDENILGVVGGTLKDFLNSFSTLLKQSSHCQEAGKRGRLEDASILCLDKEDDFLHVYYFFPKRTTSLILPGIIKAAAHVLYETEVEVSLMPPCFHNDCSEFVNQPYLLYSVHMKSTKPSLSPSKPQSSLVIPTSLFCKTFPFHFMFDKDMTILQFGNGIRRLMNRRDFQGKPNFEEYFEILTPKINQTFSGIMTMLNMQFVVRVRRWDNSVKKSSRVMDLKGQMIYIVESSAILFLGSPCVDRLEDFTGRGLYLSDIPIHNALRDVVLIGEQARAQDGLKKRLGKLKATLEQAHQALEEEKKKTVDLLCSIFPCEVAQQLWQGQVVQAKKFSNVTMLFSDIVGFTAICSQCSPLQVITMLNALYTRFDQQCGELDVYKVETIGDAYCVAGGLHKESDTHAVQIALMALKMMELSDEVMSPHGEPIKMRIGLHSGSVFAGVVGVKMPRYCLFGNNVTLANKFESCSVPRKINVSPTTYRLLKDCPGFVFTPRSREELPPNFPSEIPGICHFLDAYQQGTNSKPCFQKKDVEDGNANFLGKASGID
Experiment: Maximum effect of sGC activating function (Ca2+ fluorescence in CHO-K1 cells expressing human sGC and mouse CNGA2)
Assay type: cell-based
Details: increase ratio of sGC activity vs control solution at 10 μmol/L test compound
Method in brief: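 CHO-K1 cells stably expressing human sGC α/β and mouse CNGA2 were FURA2-AM loaded and then treated with compound at 10 μmol/L for 10 min at RT, in buffer containing 100 μmol/L IBMX, with or without 10 μmol/L ODQ. Ca²⁺ was read as the 340/380 nm excitation ratio. Activity is the % increase over the DMSO control.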

[1] = ODQ not contained, read-out: Emax (%) ODQ− (Heme-dependent)
[2] = with 10 μmol/L ODQ, read-out: Emax (%) ODQ+ (Heme-independent)

Emax at 10 µM [1] [%] | Emax at 10 µM [2] [%] | SMILES
53 | 86 | O=C(O)CCCCN(CCc1ccccc1OCc1ccc(CCc2ccccc2)cc1)Cc1ccc(C(=O)O)cc1 [Cinaciguat, reference compound]
101 | 99.9 | O=C(O)CCCCN(CCc1ccccc1OCc1ccc(SCc2ccccc2)cc1)C1CCCc2cc(C(=O)O)ccc21 (stereo not drawn) [Example 15, 5-{N-[2-[2-(4-Benzylsulfanylbenzyloxyl)phenyl]ethyl]-N-(4-carboxybutyl)amino}-5,6,7,8-tetrahydronaphthalene-2-carboxylic acid]
141 | 133 | O=C(O)CCCCN(CCc1ccccc1OCc1cccc2c1CCCC2)C1CCCc2cc(C(=O)O)ccc21 (stereo not drawn) [Example 29, 5-{N-(4-Carboxybutyl)-N-[2-[2-(5,6,7,8-tetrahydronaphthalene-1-ylmethoxy)phenyl]ethyl]amino}-5,6,7,8-tetrahydronaphthalene-2-carboxylic acid]
